This note sets out measurements from paper PMC4581874 (PLoS ONE, 2015).

Experiment [1] concerns the target T1, EGFR (L858R) (Homo sapiens, UniProt P00533, L858R).
T1 construct: purchased Millipore UK Ltd., Dundee, UK (now Eurofins Scientific); KinaseProfiler / IC50 Profiler service
The experiment can be described thus: In vitro kinase assay, EGFR (L858R). Format: biochemical. As to the method:
(§1) All kinase assays were carried out using KinaseProfiler^TM and IC50 Profiler^TM (Millipore UK Ltd., Dundee, UK. Now Eurofins Scientific, Dundee, UK). All IC50 data were presented as the mean values. The Curves obtained to determine IC50 values were shown in Supporting Information (S1 Fig).

Experiment [2] deals with T2, FGFR1 (Homo sapiens, UniProt P11362).
T2 construct: purchased Millipore UK Ltd., Dundee, UK (now Eurofins Scientific); KinaseProfiler / IC50 Profiler service
T2 sequence (P11362 22-822): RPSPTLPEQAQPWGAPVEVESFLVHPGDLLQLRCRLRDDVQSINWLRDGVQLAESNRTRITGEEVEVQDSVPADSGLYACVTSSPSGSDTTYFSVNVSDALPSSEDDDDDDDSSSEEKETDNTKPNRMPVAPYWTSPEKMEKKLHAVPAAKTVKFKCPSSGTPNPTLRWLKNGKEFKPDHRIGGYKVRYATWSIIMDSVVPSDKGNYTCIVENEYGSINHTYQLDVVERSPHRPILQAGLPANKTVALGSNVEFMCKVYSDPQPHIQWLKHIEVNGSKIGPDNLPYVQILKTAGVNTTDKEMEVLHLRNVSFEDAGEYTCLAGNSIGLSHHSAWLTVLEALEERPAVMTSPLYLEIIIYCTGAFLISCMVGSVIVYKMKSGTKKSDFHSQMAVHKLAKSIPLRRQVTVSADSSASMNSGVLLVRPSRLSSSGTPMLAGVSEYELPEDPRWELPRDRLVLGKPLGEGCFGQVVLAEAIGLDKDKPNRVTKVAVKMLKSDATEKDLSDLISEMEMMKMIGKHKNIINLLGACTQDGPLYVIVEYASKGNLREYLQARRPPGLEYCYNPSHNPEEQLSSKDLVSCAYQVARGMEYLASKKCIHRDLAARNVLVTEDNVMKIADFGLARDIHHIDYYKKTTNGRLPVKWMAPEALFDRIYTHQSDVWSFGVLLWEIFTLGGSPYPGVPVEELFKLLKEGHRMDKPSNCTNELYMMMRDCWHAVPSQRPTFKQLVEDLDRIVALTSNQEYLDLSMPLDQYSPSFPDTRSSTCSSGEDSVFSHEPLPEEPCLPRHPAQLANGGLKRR
The experiment can be described thus: In vitro kinase assay, FGFR1. Format: biochemical. The procedure: as §1

The target in experiment [3] is T3, VEGFR-2 (Homo sapiens, UniProt P35968).
T3 construct: purchased Millipore UK Ltd., Dundee, UK (now Eurofins Scientific); KinaseProfiler / IC50 Profiler service
T3 sequence (P35968 20-1356): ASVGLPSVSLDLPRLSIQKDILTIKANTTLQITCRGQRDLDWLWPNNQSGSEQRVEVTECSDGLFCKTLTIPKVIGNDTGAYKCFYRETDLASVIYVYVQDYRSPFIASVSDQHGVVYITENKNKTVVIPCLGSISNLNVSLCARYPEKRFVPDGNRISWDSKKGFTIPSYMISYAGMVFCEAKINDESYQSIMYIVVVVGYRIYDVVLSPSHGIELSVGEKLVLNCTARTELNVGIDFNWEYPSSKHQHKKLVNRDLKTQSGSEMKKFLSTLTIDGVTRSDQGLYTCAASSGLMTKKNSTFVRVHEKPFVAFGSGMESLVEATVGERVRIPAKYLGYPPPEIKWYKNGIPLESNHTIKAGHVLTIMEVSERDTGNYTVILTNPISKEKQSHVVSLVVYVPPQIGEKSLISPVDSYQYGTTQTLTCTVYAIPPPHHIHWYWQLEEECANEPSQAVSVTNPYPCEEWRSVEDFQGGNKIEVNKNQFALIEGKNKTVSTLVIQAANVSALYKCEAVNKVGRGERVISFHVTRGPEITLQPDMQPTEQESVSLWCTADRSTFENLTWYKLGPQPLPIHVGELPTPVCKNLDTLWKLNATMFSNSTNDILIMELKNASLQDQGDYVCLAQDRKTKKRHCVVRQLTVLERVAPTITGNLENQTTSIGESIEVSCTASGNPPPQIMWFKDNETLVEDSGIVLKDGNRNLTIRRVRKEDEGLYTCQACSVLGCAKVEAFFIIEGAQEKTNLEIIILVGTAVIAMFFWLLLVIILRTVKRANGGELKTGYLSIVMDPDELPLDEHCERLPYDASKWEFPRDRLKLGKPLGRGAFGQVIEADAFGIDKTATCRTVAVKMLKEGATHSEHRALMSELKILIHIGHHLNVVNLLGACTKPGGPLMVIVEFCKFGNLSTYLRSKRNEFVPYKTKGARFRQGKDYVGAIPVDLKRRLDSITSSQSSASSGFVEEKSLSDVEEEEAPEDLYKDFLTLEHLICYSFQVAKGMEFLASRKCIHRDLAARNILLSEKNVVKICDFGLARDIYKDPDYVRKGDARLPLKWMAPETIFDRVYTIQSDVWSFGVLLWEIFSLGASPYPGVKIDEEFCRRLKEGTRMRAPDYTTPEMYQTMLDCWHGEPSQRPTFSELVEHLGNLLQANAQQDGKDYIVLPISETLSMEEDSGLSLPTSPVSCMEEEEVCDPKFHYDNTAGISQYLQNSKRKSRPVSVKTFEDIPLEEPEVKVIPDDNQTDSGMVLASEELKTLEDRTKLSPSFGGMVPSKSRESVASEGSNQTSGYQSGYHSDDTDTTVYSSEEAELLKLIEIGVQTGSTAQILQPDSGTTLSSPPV
The experiment can be described thus: In vitro kinase assay, VEGFR-2. Format: biochemical. The procedure: as §1

In experiment [4] the target is T4, CaMKIIδ (h) (Homo sapiens, UniProt Q13557).
T4 construct: purchased Millipore (now Eurofins) KinaseProfiler / IC50 Profiler
T4 sequence (Q13557 whole entry): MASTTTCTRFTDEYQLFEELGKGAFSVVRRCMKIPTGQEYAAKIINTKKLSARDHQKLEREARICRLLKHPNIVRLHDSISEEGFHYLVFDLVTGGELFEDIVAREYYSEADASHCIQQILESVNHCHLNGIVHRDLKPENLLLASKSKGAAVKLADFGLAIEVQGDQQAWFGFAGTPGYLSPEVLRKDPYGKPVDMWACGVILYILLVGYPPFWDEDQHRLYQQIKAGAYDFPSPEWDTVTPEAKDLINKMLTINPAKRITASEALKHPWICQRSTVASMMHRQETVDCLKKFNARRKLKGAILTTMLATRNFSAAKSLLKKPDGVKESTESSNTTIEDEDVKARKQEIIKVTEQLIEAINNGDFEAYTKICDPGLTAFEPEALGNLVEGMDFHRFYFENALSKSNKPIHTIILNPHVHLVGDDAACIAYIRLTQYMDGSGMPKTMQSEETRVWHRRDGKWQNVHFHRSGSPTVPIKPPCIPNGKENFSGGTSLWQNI
The experiment can be described thus: Kinase profile, CaMKIIδ. Format: biochemical. The settings on record: mean ± S.D. As to the method: as §1

Experiment [5] has as its target T5, CDK5/p25 (h) (Homo sapiens, UniProt Q00535).
T5 construct: purchased Millipore (now Eurofins) KinaseProfiler / IC50 Profiler
The experiment can be described thus: Kinase profile, CDK5/p25. Format: biochemical. The settings on record: mean ± S.D. The procedure:
as §1

Experiment [6] has as its target T6, CDK9/cyclin T1 (h) (Homo sapiens, UniProt P50750).
T6 construct: purchased Millipore (now Eurofins) KinaseProfiler / IC50 Profiler
The experiment in a line: Kinase profile, CDK9/cyclin T1. Format: biochemical. To be noted: mean ± S.D. The procedure:
as §1

The target of experiment [7] is T7, p70S6K (h) (Homo sapiens, UniProt P23443).
T7 construct: purchased Millipore (now Eurofins) KinaseProfiler / IC50 Profiler
The experiment can be described thus: Kinase profile, p70S6K. The settings on record: mean ± S.D. Format: biochemical. As to the method: as §1

Experiment [8] deals with T8, PKCε (h) (Homo sapiens, UniProt Q02156).
T8 construct: purchased Millipore (now Eurofins) KinaseProfiler / IC50 Profiler
The experiment in a line: Kinase profile, PKCε. Format: biochemical. To be noted: mean ± S.D. The procedure: as §1

Experiment [9] addresses T9, PKCθ (h) (Homo sapiens, UniProt Q04759).
T9 construct: purchased Millipore (now Eurofins) KinaseProfiler / IC50 Profiler
The experiment in a line: Kinase profile, PKCθ. To be noted: mean ± S.D. Format: biochemical. As to the method: as §1

The target in experiment [10] is T10, PKG1α (h) (Homo sapiens, UniProt Q13976).
T10 construct: purchased Millipore (now Eurofins) KinaseProfiler / IC50 Profiler
The experiment can be described thus: Kinase profile, PKG1α. Format: biochemical. The settings on record: mean ± S.D. As to the method: as §1

The subject of experiment [11] is HUVECs. The experiment in a line: VEGF-induced scratch wound migration assay. Format: cell-based, human. To be noted: VEGF 50 ng/mL, compound 0.5 μg/mL, 8 hours. The procedure: For the cell proliferation assays, cells were incubated overnight in endothelial basal media (EBM; Lonza, Walkersville, MD, USA) containing 0.5% FBS or supplemented with VEGF-A and/or VEGF inhibitors. The cells were washed with PBS and counted in 4 random microscope fields. The tube formation assay was performed by seeding cells on Matrigel-coated plates (BD Bioscience, Bedford, MA, USA) and incubating in EBM containing 0.5% FBS or supplemented with VEGF-A and/or VEGF inhibitors. After overnight incubation, tubule networks were quantified by measuring the tubule length in 4 random microscope fields. For the analysis of scratch wound migration, confluent cell monolayers grown on 6-well plates were scratched using a micropipette tip. After the plates were washed with PBS to remove dislodged cells and media, they were incubated with EBM containing 0.5% FBS or supplemented with VEGF and/or VEGF inhibitors for 8 hours. Cell migration was observed by optical microscopy and quantified by measuring the number of cells that had migrated from the wound edges.

T1 sequence (P00533 25-1210 L858R): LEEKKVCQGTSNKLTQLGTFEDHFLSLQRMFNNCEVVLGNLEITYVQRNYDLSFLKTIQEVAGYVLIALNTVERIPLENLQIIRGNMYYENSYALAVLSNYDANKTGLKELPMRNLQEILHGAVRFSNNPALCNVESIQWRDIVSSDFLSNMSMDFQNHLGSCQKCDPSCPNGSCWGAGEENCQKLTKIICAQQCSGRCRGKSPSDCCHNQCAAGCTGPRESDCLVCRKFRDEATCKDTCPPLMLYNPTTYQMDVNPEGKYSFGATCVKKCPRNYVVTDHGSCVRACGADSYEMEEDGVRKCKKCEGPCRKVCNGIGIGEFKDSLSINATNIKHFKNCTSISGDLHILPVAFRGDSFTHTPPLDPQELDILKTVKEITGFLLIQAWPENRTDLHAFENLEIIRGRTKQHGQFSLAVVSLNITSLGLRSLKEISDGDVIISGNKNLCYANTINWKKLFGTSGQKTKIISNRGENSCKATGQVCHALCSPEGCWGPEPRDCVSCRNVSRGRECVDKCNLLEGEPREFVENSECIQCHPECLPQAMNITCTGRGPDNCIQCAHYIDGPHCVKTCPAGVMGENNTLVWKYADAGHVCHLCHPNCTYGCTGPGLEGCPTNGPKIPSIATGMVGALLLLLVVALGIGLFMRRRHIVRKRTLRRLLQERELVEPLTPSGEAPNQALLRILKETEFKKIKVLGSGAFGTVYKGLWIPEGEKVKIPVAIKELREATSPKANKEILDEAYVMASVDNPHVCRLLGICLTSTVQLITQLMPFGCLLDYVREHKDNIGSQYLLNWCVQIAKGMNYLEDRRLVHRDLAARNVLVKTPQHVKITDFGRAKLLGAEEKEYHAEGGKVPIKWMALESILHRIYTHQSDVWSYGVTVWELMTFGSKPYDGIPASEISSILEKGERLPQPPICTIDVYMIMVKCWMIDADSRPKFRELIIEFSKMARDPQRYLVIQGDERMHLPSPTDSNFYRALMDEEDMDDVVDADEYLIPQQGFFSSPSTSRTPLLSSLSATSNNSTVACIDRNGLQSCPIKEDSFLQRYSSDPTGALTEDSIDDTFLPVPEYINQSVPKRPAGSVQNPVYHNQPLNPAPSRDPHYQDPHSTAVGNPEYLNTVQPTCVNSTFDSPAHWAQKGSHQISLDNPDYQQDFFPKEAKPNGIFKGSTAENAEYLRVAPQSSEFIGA
T6 sequence (P50750 whole entry): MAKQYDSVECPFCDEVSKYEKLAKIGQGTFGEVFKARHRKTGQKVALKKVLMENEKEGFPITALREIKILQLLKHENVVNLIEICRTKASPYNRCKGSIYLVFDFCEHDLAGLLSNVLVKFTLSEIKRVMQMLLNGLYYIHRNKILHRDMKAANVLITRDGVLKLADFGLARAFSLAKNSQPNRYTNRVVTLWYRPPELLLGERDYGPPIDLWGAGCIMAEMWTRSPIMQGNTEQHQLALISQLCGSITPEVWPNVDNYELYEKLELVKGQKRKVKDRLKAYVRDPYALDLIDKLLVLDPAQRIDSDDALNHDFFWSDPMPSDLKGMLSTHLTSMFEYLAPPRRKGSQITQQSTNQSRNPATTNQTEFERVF
T6 sequence (O60563 whole entry partner): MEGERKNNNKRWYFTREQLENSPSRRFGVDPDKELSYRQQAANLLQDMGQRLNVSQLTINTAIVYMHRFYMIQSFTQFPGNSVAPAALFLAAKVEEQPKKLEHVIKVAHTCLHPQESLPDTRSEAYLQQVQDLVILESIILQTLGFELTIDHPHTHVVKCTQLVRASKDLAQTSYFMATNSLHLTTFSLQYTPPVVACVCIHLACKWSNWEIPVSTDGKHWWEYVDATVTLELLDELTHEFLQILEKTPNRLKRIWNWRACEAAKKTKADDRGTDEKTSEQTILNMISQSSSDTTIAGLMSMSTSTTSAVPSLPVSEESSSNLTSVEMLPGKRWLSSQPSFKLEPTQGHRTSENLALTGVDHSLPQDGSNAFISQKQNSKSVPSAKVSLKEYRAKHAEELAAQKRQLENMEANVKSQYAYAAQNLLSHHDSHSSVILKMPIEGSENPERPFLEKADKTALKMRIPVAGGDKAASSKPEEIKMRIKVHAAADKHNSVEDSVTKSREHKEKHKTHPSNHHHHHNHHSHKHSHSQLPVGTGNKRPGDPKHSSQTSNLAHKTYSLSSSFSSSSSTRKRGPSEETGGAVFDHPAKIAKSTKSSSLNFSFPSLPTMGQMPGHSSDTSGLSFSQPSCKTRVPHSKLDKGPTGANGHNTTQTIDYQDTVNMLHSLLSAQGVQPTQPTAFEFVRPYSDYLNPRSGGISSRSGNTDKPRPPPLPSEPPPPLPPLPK

Take `Cc1ccc(Nc2nccc(N(C)c3ccc4[nH]ccc4c3)n2)cc1S(N)(=O)=O` [MKP101]: the inhibition (commonly the percentage by which the read-out fell short of the control) at 1 µM in [1] (1 μM, mean ± S.D., read-out: % inhibition at 1 μM, EGFR(L858R)(h)) turned out to be 96 ± 1%; in [2] (1 μM, mean ± S.D., read-out: % inhibition at 1 μM, FGFR1 (h)), 98 ± 1%; in [3] (1 μM, mean ± S.D., read-out: % inhibition at 1 μM, VEGFR-2 (h)), 94 ± 2%; in experiment [4], 41 ± 3%; in experiment [5], 47 ± 2%; in experiment [6], 54 ± 4%. Further, the inhibition at 1 µM in experiment [7] worked out at 20 ± 3%; in experiment [8], 2 ± 3%; in [9], 16 ± 2%; in experiment [10] it was 0%. For the same molecule, the IC50 (as a rule, the concentration that inhibits the measured activity by half) in experiment [1] (in vitro kinase assay, mean values) amounted to 17 nM; in experiment [2] (in vitro kinase assay), 28 nM; in [3] (in vitro kinase assay), 32 nM. The “Effect on VEGF-induced increase in migration” value in experiment [11] was “significantly inhibited”.
